Where “and” joins values, the source holds several entries; their conditions need not be identical. Equal values may be shown once. Read-outs that look alike come from different tables or passages of the source.
Tests used:
[1] = tested on: hypogonadism in men; experiment: Study of testosterone cypionate injections every 7 days (with anastrozole) in men, followed by blood work until stabilization; type: in vivo, human; conditions: for TT at week 5 / TT once stable: average total testosterone; for increase in PSA from start of treatment to stabilization / PSA level at stabilization / Hemoglobin at 5 weeks / Hemoglobin at stabilization: average; for average decrease in A1c: TC and anastrozole dosing
From the text: Patient hemoglobin and total testosterone (TT) levels were used in this Study to determine when a patient becomes “stable” on treatment. The terms “stable”, “stability”, “stabilized” and “stabilization” are defined in this Study as “the point at which a patient's symptoms have resolved, polycythemia has stopped, and TC dosage has remained consistent for at least 3 months.” Polycythemia associated with testosterone replacement therapy (TRT) has commonly been controlled through frequent patient blood donation. […] Several TT “normal” ranges can be found in the literature. For example, the Endocrine Society identifies the normal range for TT levels in males to be 264-916 ng/dL (1,17). However, LabCorp Diagnostics has used the previously accepted “normal” range of 348-1197 ng/dL until 2017 and Quest Diagnostics uses a reference range of 250-1110 ng/dL.
Patients' responses to TC injections administered every 7 days were tracked and the resulting effects of TC dosing on cholesterol, A1c, and PSA levels were documented once stable TT levels were reached.
Subjects: Two cohorts were studied. The two cohorts studied were males that had previously been on TRT and males who had never been on any form of TRT. Blood work was collected from all patients at their initial visit, after 1 month of treatment, after 3 months of treatment, and then at 6 months, 9 months, 12 months, etc. as patients continued treatment. Data was collected for each cohort including the length of time that it took to stabilize on treatment and the average dosage injected weekly once patients had reached stabilization.
However, in this Study TC injections were administered every 7 days, and blood samples were collected at 7 days post-TC injection and after at least 4 consecutive weeks of injections. […] Collecting blood samples at the 4-week mark provides more consistent, accurate, and useful information regarding the TT blood level than if the samples are collected earlier.
Blood samples were then sent to an outsourced laboratory, Lab Tech Diagnostics. Samples were drawn at the patient's initial visit, after their first 4 consecutive TC injections, after 3 months of treatment, and at 3-month intervals thereafter. Testosterone, estradiol, and hemoglobin levels were tracked with every blood sample. PSA and cholesterol levels were checked every 3 months. A1c levels were checked with initial blood work, and then once per year if A1c was within normal limits (WNL) or every 3 months if A1c was >5.6.
Given, the primary goal was to determine a stabilization point such that the patient achieved maximum benefit with minimal side effects (e.g., elimination of polycythemia) from the treatment, the challenge was to identify a TC dose at which the patient's hemoglobin stopped increasing. […] Patients were advised to start 81 mg aspirin daily if their hemoglobin started increasing after starting treatment. […] Dosage adjustments of TC were made in 20 mg (0.1 ml) increments. Assessment of new dosages were not made until after four consecutive injections at the new dose and at 7 days after their last injection. After analysis of data, there were notable similarities in the Total Testosterone, estradiol, and hemoglobin levels once patients reached stabilization on treatment. There were also differences seen between patients that had been on TRT in the past through other clinics and those that started treatment with our clinic. Patients who had previously been on TRT took longer to stabilize on therapy than those who had never been on TRT.

[2] = in humans; cited from earlier work
[3] = well-known value; cited from earlier work
[4] = patients never on TRT, starting TT level 347.77 ng/dl
[5] = patients previously on TRT, starting TT level 479.83 ng/dl
[6] = patients never on TRT, initial 15.06 g/dl
[7] = patients previously on TRT, initial 15.78 g/dl

SMILES: CC(=O)Oc1ccccc1C(=O)O [aspirin]
- effect of adding aspirin on hemoglobin levels ([1]; 81 mg daily, patients on TC whose hemoglobin started increasing): helped to either decrease hemoglobin levels or slow the rate of increase of hemoglobin levels

SMILES: CC(C)(C#N)c1cc(Cn2cncn2)cc(C(C)(C)C#N)c1 [anastrozole]
- side effects when anastrozole was started at the beginning of treatment ([1]; in vivo): frequently experienced hot flashes or joint pains
- half-life [2]: 30 to 60 h

SMILES: C[C@]12CC[C@H]3[C@@H](CCC4=CC(=O)CC[C@@]43C)[C@@H]1CC[C@@H]2OC(=O)CCC1CCCC1 [TC, testosterone cypionate]
- half-life [3]: 170 to 190 h
- symptoms at low 7-day testosterone level ([1]; 7-day testosterone level <600): almost all patients were still experiencing symptoms of testicular hypofunction
- patients who developed prostate cancer ([1]; 60 patients in the study): No patients
- common increase in cholesterol levels seen with excessive TC dosing ([1]; TC and anastrozole dosing as described in the study): Elimination
- side effects seen at higher TT levels ([1]; TT levels >1050): acne, aggression, erectile dysfunction, difficulty losing weight, extremely elevated estradiol levels, hair loss, and increased body hair
- TT level at which patients stabilized (range) ([1]; all patients in the study, drawn 7 days after injection): 605 to 1051 ng/dL
- TT at week 5 [1, 4]: 705.43 ng/dL
- TT once stable [1, 4]: 794.53 ng/dL
- TT at week 5 [1, 5]: 805.9 ng/dL and 805.90 ng/dL
- TT once stable [1, 5]: 780.1 ng/dL and 780.10 ng/dL
- increase in PSA from start of treatment to stabilization ([1]; patients never on TRT): 26.89%
- PSA level at stabilization ([1]; patients never on TRT, initial 0.859 ng/ml): 1.090 ng/mL
- Hemoglobin at 5 weeks [1, 6]: 15.33 g/dL
- Hemoglobin at stabilization [1, 6]: 15.79 g/dL
- increase in PSA from start of treatment to stabilization ([1]; patients previously on TRT): 14.36%
- PSA level at stabilization ([1]; patients previously on TRT, initial 1.017 ng/ml): 1.163 ng/mL
- Hemoglobin at 5 weeks [1, 7]: 16.22 g/dL
- Hemoglobin at stabilization [1, 7]: 15.70 g/dL
- side effects when not consistent with both TC and anastrozole dosing ([1]; inconsistent timing and dosage): frequently experienced acne, mood swings, and elevating hemoglobin
- polycythemia (need to donate blood) ([1]; once a patient reached stability on treatment): eliminated
- chief complaints/symptoms (Table 1) as reported by the patient ([1]; once stable on treatment): well-controlled
- average decrease in A1c ([1]; patients not previously on TRT): 0.39%
- average time longer to stabilize ([1]; patients previously on TRT in any form versus patients never on TRT): 9.7 months
- average decrease in A1c ([1]; patients previously on TRT): 0.14%
- TT level at stabilization (range) ([1]; patients never on TRT): 641 to 1051 ng/dL
- TT level at stabilization (range) ([1]; patients previously on TRT): 605 to 1020 ng/dL
